Source: ChEMBL document CHEMBL3044527, “Involvement of melanin synthesis and reactive oxygen species in phytotoxic action of l-DOPA in carrot cells” (2007)
Activity calls are given as the source filed them. The calls are words filed in the database; no cut-off is given here.

Key:
Assay type in all cases: functional
Daucus carota [1] = experiment: Phytotoxicity against Daucus carota (carrot) cells grown in culture assessed as melanin per packed cell volume at 1 mM after 6 days by spectrophotometric analysis in presence of alpha-tocopherol (reference value: 27.2 ug per packed cell volume)
Daucus carota [2] = experiment: Phytotoxicity against Daucus carota (carrot) cells grown in culture assessed as increase in ROS level at 1 mM after 24 hr by MPEC-based chemiluminescence assay in presence of SOD relative to control
Daucus carota [3] = experiment: Phytotoxicity against Daucus carota (carrot) cells grown in culture assessed as melanin per packed cell volume at 1 mM after 4 days by spectrophotometric analysis in presence of ascorbic acid (reference value: 21.3 ug per packed cell volume)
Daucus carota [4] = experiment: Phytotoxicity against Daucus carota (carrot) cells grown in culture assessed as growth inhibition at 1 mM after 2 days relative to control; conditions: 48 h, values are per cent of control
Daucus carota [5] = experiment: Phytotoxicity against Daucus carota (carrot) cells grown in culture assessed as lipid peroxidation at 1 mM after 2 days by TBARS method in presence of ascorbic acid relative to control
Daucus carota [6] = experiment: Phytotoxicity against Daucus carota (carrot) cells grown in culture assessed as melanin per packed cell volume at 1 mM after 4 days by spectrophotometric analysis in presence of alpha-tocopherol (reference value: 21.3 ug per packed cell volume)
Daucus carota [7] = experiment: Phytotoxicity against Daucus carota (carrot) cells grown in culture assessed as melanin per packed cell volume at 0.1 mM after 4 days by spectrophotometric analysis (reference value: 21.3 ug per packed cell volume)
Daucus carota [8] = experiment: Phytotoxicity against Daucus carota (carrot) cells grown in culture assessed as growth inhibition at 1 mM after 2 to 6 days in presence of SOD relative to control
Daucus carota [9] = experiment: Phytotoxicity against Daucus carota (carrot) cells grown in culture assessed as increase in ROS level at 1 mM after 24 hr by MPEC-based chemiluminescence assay in presence of catalase relative to control
Daucus carota [10] = experiment: Phytotoxicity against Daucus carota (carrot) cells grown in culture assessed as growth inhibition at 1 mM after 2 days in presence of ascorbic acid relative to control
Daucus carota [11] = experiment: Phytotoxicity against Daucus carota (carrot) cells grown in culture assessed as melanin per packed cell volume at 1 mM after 2 days by spectrophotometric analysis in presence of alpha-tocopherol (reference value: 23.7 ug per packed cell volume)
Daucus carota [12] = experiment: Phytotoxicity against Daucus carota (carrot) cells grown in culture assessed as lipid peroxidation at 1 mM after 2 days by TBARS method in presence of alpha-tocopherol relative to control
Daucus carota [13] = experiment: Phytotoxicity against Daucus carota (carrot) cells grown in culture assessed as melanin per packed cell volume at 1 mM after 2 days by spectrophotometric analysis in presence of ascorbic acid (reference value: 23.7 ug per packed cell volume)
Daucus carota [14] = experiment: Phytotoxicity against Daucus carota (carrot) cells grown in culture assessed as lipid peroxidation at 1 mM after 2 days by TBARS method relative to control
Daucus carota [15] = experiment: Phytotoxicity against Daucus carota (carrot) cells grown in culture assessed as melanin per packed cell volume at 0.1 mM after 6 days by spectrophotometric analysis (reference value: 27.2 ug per packed cell volume)
Daucus carota [16] = experiment: Phytotoxicity against Daucus carota (carrot) cells grown in culture assessed as lipid peroxidation at 1 mM after 4 to 6 days by TBARS method relative to control
Daucus carota [17] = experiment: Phytotoxicity against Daucus carota (carrot) cells grown in culture assessed as growth inhibition at 0.1 mM after 6 days relative to control; conditions: 144 h, values are per cent of control
Daucus carota [18] = experiment: Phytotoxicity against Daucus carota (carrot) cells grown in culture assessed as growth inhibition at 1 mM after 2 to 6 days in presence of alpha-tocopherol relative to control
Daucus carota [19] = experiment: Phytotoxicity against Daucus carota (carrot) cells grown in culture assessed as growth inhibition at 1 mM after 4 days relative to control; conditions: 96 h, values are per cent of control
Daucus carota [20] = experiment: Phytotoxicity against Daucus carota (carrot) cells grown in culture assessed as melanin per packed cell volume at 1 mM after 4 days by spectrophotometric analysis (reference value: 21.3 ug per packed cell volume)
Daucus carota [21] = experiment: Phytotoxicity against Daucus carota (carrot) cells grown in culture assessed as melanin per packed cell volume at 1 mM after 2 days by spectrophotometric analysis (reference value: 23.7 ug per packed cell volume)
Daucus carota [22] = experiment: Phytotoxicity against Daucus carota (carrot) cells grown in culture assessed as growth inhibition at 1 mM after 4 days in presence of ascorbic acid relative to control
Daucus carota [23] = experiment: Phytotoxicity against Daucus carota (carrot) cells grown in culture assessed as growth inhibition at 1 mM after 2 to 6 days in presence of catalase relative to control
Daucus carota [24] = experiment: Phytotoxicity against Daucus carota (carrot) cells grown in culture assessed as growth inhibition at 1 mM after 6 days relative to control; conditions: 144 h, values are per cent of control
Daucus carota [25] = experiment: Phytotoxicity against Daucus carota (carrot) cells grown in culture assessed as increase in ROS level after 24 hr by MPEC-based chemiluminescence assay relative to control
Daucus carota [26] = experiment: Phytotoxicity against Daucus carota (carrot) cells grown in culture assessed as melanin per packed cell volume at 0.1 mM after 2 days by spectrophotometric analysis (reference value: 23.7 ug per packed cell volume)
Daucus carota [27] = experiment: Phytotoxicity against Daucus carota (carrot) cells grown in culture assessed as melanin per packed cell volume at 1 mM after 6 days by spectrophotometric analysis (reference value: 27.2 ug per packed cell volume)
Daucus carota [28] = experiment: Phytotoxicity against Daucus carota (carrot) cells grown in culture assessed as growth inhibition at 0.1 mM after 8 days relative to control; conditions: 192 h, values are per cent of control
Daucus carota [29] = experiment: Phytotoxicity against Daucus carota (carrot) cells grown in culture assessed as growth inhibition at 0.1 mM after 4 days relative to control; conditions: 96 h, values are per cent of control
Daucus carota [30] = experiment: Phytotoxicity against Daucus carota (carrot) cells grown in culture assessed as growth inhibition at 0.1 mM after 2 days relative to control; conditions: 48 h, values are per cent of control
Daucus carota [31] = experiment: Phytotoxicity against Daucus carota (carrot) cells grown in culture assessed as increase in ROS level at 1 mM after 24 hr by MPEC-based chemiluminescence assay in presence of ascorbic acid relative to control
Daucus carota [32] = experiment: Phytotoxicity against Daucus carota (carrot) cells grown in culture assessed as melanin per packed cell volume at 1 mM after 6 days by spectrophotometric analysis in presence of ascorbic acid (reference value: 27.2 ug per packed cell volume)
Daucus carota [33] = experiment: Phytotoxicity against Daucus carota (carrot) cells grown in culture assessed as growth inhibition at 1 mM after 6 days in presence of ascorbic acid relative to control
Daucus carota [34] = experiment: Phytotoxicity against Daucus carota (carrot) cells grown in culture assessed as growth inhibition at 1 mM after 8 days relative to control; conditions: 192 h, values are per cent of control

**Q.** What does the source list for `N[C@@H](Cc1ccc(O)c(O)c1)C(=O)O` [LEVODOPA]?
**A.** Activity (Daucus carota [1]): 28.1 µg; Activity (Daucus carota [2]): Active; Activity (Daucus carota [3]): 22.9 µg; growth, % of control at 1000 µM (Daucus carota [4]): 62%; Activity (Daucus carota [5]): inactive; Activity (Daucus carota [6]): 27.4 µg; Activity (Daucus carota [7]): 31.7 µg; Activity (Daucus carota [8]): Active; Activity (Daucus carota [9]): Active; Activity (Daucus carota [10]): inactive; Activity (Daucus carota [11]): 27.9 µg; Activity (Daucus carota [12]): inactive; Activity (Daucus carota [13]): 17.9 µg; Activity (Daucus carota [14]): Active; Activity (Daucus carota [15]): 32.2 µg; Activity (Daucus carota [16]): inactive; growth, % of control at 100 µM (Daucus carota [17]): 80.9%; Activity (Daucus carota [18]): inactive; growth, % of control at 1000 µM (Daucus carota [19]): 59.6%; Activity (Daucus carota [20]): 42.8 µg; Activity (Daucus carota [21]): 28.4 µg; Activity (Daucus carota [22]): inactive; Activity (Daucus carota [23]): Active; growth, % of control at 1000 µM (Daucus carota [24]): 60.9%; Activity (Daucus carota [25]): Active; Activity (Daucus carota [26]): 26.8 µg; Activity (Daucus carota [27]): 66.1 µg; growth, % of control at 100 µM (Daucus carota [28]): 83.7%; growth, % of control at 100 µM (Daucus carota [29]): 88.2%; growth, % of control at 100 µM (Daucus carota [30]): 84.7%; Activity (Daucus carota [31]): inactive; Activity (Daucus carota [32]): 28.2 µg; Activity (Daucus carota [33]): inactive; growth, % of control at 1000 µM (Daucus carota [34]): 64.9%
